Experimental data: patent publication US20140213779A1, “RIBOSWITCHES” (THE UNIVERSITY OF MANCHESTER, priority 2011, published 2014)
Where two headings read alike, the source gives them in different places.

What was measured:
[1] = tested on: add A-riboswitch; experiment: Dual promoter construct, eGFP expression by fluorescence; format: cell-based, Escherichia coli
Text: (§1) Here we show how two mutually orthogonal riboswitches can be independently controlled by varying concentrations of two distinct synthetic inducers, allowing dynamic expression landscapes to be accessed and optimal co-expression stoichiometries to be established. In the first instance a dual promoter system was constructed, in the pBKS vector with the orthogonal M6 riboswitch selected previously (Dixon et al Proc Natl Acad Sci USA 2010, 107, 2830] or Dixon et al Angew. Chem. 2012, 51, 3620-3624. controlling translation of the red fluorescent protein DsRed [Bevis, Nat. Biotech. 20:83 (2002)] in response to the ligand ammeline (Am). The bacteriophage lambda tR1 transcription terminator [Graham. NAR, Vol. 32:3093 (2004] was inserted downstream of DsRed gene, followed by a second lac promoter and the 2-aminopurine (2AP)-responsive parental add A-riboswitch [Dixon et al Proc Natl Acad Sci USA 2010, 107, 2830 & Mandal, Nat Struct Mol Biol 11: 29 (2004)] controlling translation of the green fluorescent protein eGFP (FIG. 34A). Escherichia coli was transformed with this dual promoter construct and expression of DsRed and eGFP genes, was then determined by fluorescence as function of inducer concentrations.
(§2) To explore the capacity of the dual promoter system for controlling the differential expression of DsRed and eGFP, multi-dosage matrix expression analysis was performed where induction factors (IF), the ratio of the maximum ligand-induced protein expression over the basal protein expression level, are determined for a full range of inducer concentrations (FIGS. 34A & B).
(§3) A number of reasons could possibly account for this. Firstly, ribosomal read-through could result in a more efficient initiation of translation at the eGFP RBS. […] Titration of the M6 selective inducer Am (0→250 μM) against the dual promoter in either the absence or presence 2AP (0 or 250 μM) gives dose-dependent protein expression curves for DsRed that are very similar, with maximum normalized red fluorescence (fu/OD620) of 1.1×10^5 and 1.0×10^5 respectively (FIG. 36A). […]

[2] = tested on: M6 riboswitch; experiment: Dual promoter construct, DsRed expression by fluorescence; format: cell-based, Escherichia coli; settings: for maximum normalized red fluorescence: Am 0→250 μM
Text: as §1, §2
(§4) A number of reasons could possibly account for this. Firstly, ribosomal read-through could result in a more efficient initiation of translation at the eGFP RBS. Secondly, riboswitches that control gene expression through changing the accessibility of the RBS (like addA), may also rely on Rho-dependent termination of transcription [Roth, Annu. Rev. Biochem. 78:305 (2009) & Peters Proc. Natl. Acad. Sci. USA 106:15406 (2009)]. In the case of the operon, when both riboswitches are activated by Am and 2AP, ribosomes will be recruited at both RBSs and will occupy the full length of the transcript, blocking Rho binding [Epshtein, Nature 463:245 (2010)]. Consequently the levels of full-length mRNA transcripts in the cell will be higher, than if either or both ligands are absent. Finally protection of the full-length transcript from nuclease degradation by actively translating ribosomes [Deana, Genes Dev. […] Titration of the M6 selective inducer Am (0→250 μM) against the dual promoter in either the absence or presence 2AP (0 or 250 μM) gives dose-dependent protein expression curves for DsRed that are very similar, with maximum normalized red fluorescence (fu/OD620) of 1.1×10^5 and 1.0×10^5 respectively (FIG. 36A). […]

[3] = tested on: M6; settings: earlier in vitro studies; cited from earlier work
[4] = tested on: intergenic add-A riboswitch; experiment: Operon construct, eGFP expression by fluorescence; format: cell-based, Escherichia coli
Text: In a second series of experiments, a synthetic operon was designed with one promoter driving transcription of a single bicistronic mRNA comprising the M6 riboswitch regulating DsRed, and an intergenic add-A riboswitch controlling a downstream eGFP gene (FIG. 35A). […] Moreover, the maximum DsRed induction factor was 21.2, which is also more than 2-fold higher than the dual promoter system (FIG. 35B). The organisation of M6-DsRed in an operon, permits differential control, but also gives rise to significant amplification of the dynamic range of gene expression (IF), compared with the dual promoter system. […] In this case, eGFP output was clearly dependent on both ligands. A synergistic effect of the two ligands is observed in the induction factor matrix analysis, across a full range of Am and 2AP concentrations (FIG. 35C), with the expression landscape reaching a maximum induction factor of 24.1 in the presence of the highest concentrations of both inducers. […] Similarly no cross-talk is observed with the dual promoter system described above.
as §4, with “(2010)].” for “(2010)]. Consequently the levels of full-length mRNA transcripts in the cell will be higher, than if either or both ligands are absent. Finally protection of the full-length transcript from nuclease degradation by actively translating ribosomes [Deana, Genes Dev.”

[5] = biological target: M6″ riboswitch aptamer; experiment: Isothermal titration calorimetry with M6″ aptamer; format: binding
Text: (§5) Re-engineering the adenine responsive add A-riboswitch (addA) from Vibrio vulnificus (FIGS. 27A & B) [Dixon et al Proc Natl Acad Sci USA 2010, 107, 2830].

[6] = tested on: addA(wt) riboswitch aptamer; experiment: Isothermal titration calorimetry with AddA(wt) aptamer; format: binding, Vibrio vulnificus; settings: ITC, FIG. 59
Text: Improved 2nd generation ligands have been discovered both in terms of in vivo and in vitro binding affinity.

[7] = tested on: M6″ riboswitch; experiment: T7 RNA polymerase expression under M6″ riboswitch control (spacer constructs); settings: for regulation upon addition of IPTG: IPTG 0.5 mM
Description: (§6) Expression is induced using IPTG (0.5 mM) and increasing concentrations of A43 (respectively 0, 5, 10, 25, 50, 100, 250 uM) shown in the third to eighth columns.

[8] = tested on: M6″ riboswitch
Description: as §6

[9] = tested on: M6″ riboswitch; experiment: M6″-eGFP construct, GFP expression; format: cell-based, E. coli
Text: as §5
In contrast, the genetic construct of the invention comprises a lac promoter/operator upstream of a 2nd generation riboswitch M6″-eGFP the lac promoter/operator and riboswitch respectively providing direct control of the expression of GFP via transcriptional and translational control.
Both the comparator construct and the genetic construct of the invention were provided on high copy plasmids in Top 10F′.

[10] = tested on: add A; settings: earlier in vitro studies; cited from earlier work
[11] = tested on: AddA riboswitch; experiment: addA-eGFP construct, GFP expression; format: cell-based, E. coli
Text: In the control constructs GFP expression is controlled directly by a lac promoter/operator alone. In contrast, in the gene constructs of the invention GFP expression is controlled by both a lac promoter/operator, and a riboswitch. In this arrangement the lac promoter provides transcriptional control of expression, and the riboswitch provides translational control. […] In this example, the first generation riboswitch comprises AddA (the ligand for which is adenine), and the second generation riboswitch comprises M6″ (the ligand for which is A43).
GFP induction factors (left axis indicated by the green bars) and absolute normalized GFP fluorescence signal (right axis) in the absence of inducer (open shape) and in the presence of inducer (closed shape).

[12] = tested on: M6 riboswitch; experiment: Operon construct, DsRed expression by fluorescence; format: cell-based, Escherichia coli
Text: In a second series of experiments, a synthetic operon was designed with one promoter driving transcription of a single bicistronic mRNA comprising the M6 riboswitch regulating DsRed, and an intergenic add-A riboswitch controlling a downstream eGFP gene (FIG. 35A). […] Moreover, the maximum DsRed induction factor was 21.2, which is also more than 2-fold higher than the dual promoter system (FIG. 35B). The organisation of M6-DsRed in an operon, permits differential control, but also gives rise to significant amplification of the dynamic range of gene expression (IF), compared with the dual promoter system. […] In this case, eGFP output was clearly dependent on both ligands. […]
as §3

[13] = tested on: lac promoter/operator; experiment: Control lac P/O construct, GFP expression; format: cell-based, E. coli
Text: FIGS. 52 and 53 illustrate the increased dynamic regulation of expression of a gene of interest (here exemplified by green fluorescent protein) that can be achieved using gene constructs in accordance with the present invention, as compared to comparator (control) constructs. In the control constructs GFP expression is controlled directly by a lac promoter/operator alone. In contrast, in the gene constructs of the invention GFP expression is controlled by both a lac promoter/operator, and a riboswitch. In this arrangement the lac promoter provides transcriptional control of expression, and the riboswitch provides translational control. FIGS. 52 and 53 respectively show data generated by gene constructs of the invention comprising first and second generation riboswitches (referred to respectively as “1st Generation” and “2nd Generation” constructs) when present on high copy plasmids in E. coli Top10F′. In this example, the first generation riboswitch comprises AddA (the ligand for which is adenine), and the second generation riboswitch comprises M6″ (the ligand for which is A43). […]
The induction factor represents the degree to which gene expression is controlled, and is determined from the ratio of the maximum induced protein expression over the basal protein expression level. […]

[14] = tested on: M6C″ riboswitch; experiment: M6C″-eGFP riboswitch-reporter construct, gene expression; format: cell-based, E. coli
Text: as §5

[15] = tested on: M6C″ riboswitch aptamer; experiment: Isothermal titration calorimetry with M6C″ aptamer; format: binding; settings: ITC, M6C″ aptamer domain
Text: as §5

SMILES: Nc1ncc2[nH]cnc2n1 [2AP, 2-aminopurine]
- induction factor, eGFP ([1]; increasing 2AP): 11.3
- maximum eGFP levels ([1]; unaffected by Am): ca. 55×10^6 fu/OD620
- effect upon DsRed induction ([2]; simultaneous increase in 2AP): essentially no effect
- binding interaction [3]: no binding interaction
- output, eGFP ([4]; 2AP in the presence of Am (250 μM)): 25.9×10^6 fu/OD620
- maximum induction factor, eGFP ([4]; highest concentrations of both inducers (Am and 2AP)): 24.1
- maximum output, eGFP ([4]; titration of 2AP alone): 14.8×10^6 fu/OD620

SMILES: Nc1nc(N)c2cncnc2n1 [A43, pyrimido[4,5-d]pyrimidine-2,4-diamine]
- Kd ([5]; isothermal titration calorimetry, FIG. 59, read-out: Kd): 189 nM
- affinity [6]: no affinity
- induction of T7 RNA polymerase (blot) ([7]; A43 50, 100, 250, 1000 μM, lac I forward or reverse, FIG. 48): dose-dependent
- regulation of T7RNAP (western blot) ([7]; pTTv9, A43 2→250 uM, absence and presence of A1 (250 uM)): dose dependent regulation
- dynamic range of control (max/un-induced) ([8]; 105 nt spacer, IPTG (0.5 mM) plus A43 (250 uM)): 134 fold
- induction factor above IPTG expression ([8]; sp120): up to 12 fold
- maximum eGFP expression compared with WT ([9]; eGFP expression assay, FIG. 58): exceeds that of the WT (adddA) with adenine
- induction of gene expression ([9]; in E. coli): 12 fold
- induction of gene expression ([9]; in combination with lac promoter/operator, FIG. 53): > 400 fold
- induction factor ([9]; maximum induced over basal, IPTG plus A43): ~450

SMILES: Nc1nc(N)c2nccnc2n1 [A44, 2,4-Diaminopteridine]
- Kd ([5]; ITC, FIG. 60, read-out: in vitro binding affinity): ~2000 nM

SMILES: Nc1nc(N)[nH]c(=O)n1 [Am, ammeline]
- effect upon induction of eGFP expression ([1]; changes in Am concentration): no effect
- binding interaction [10]: no binding interaction
- maximum normalized red fluorescence ([2]; absence of 2AP): 1.1×10^5 fu/OD620
- maximum normalized red fluorescence ([2]; presence of 2AP 250 μM): 1.0×10^5 fu/OD620
- maximum induction factor, DsRed ([2]; increasing Am, co-administration of 2-AP): 9.3
- Kd ([5]; ITC, M6″ aptamer domain, read-out: Kd): 1000 to 1200 nM
- response of riboswitch to ligand [11]: does not respond
- maximum DsRed induction factor [12]: 21.2
- maximum output, DsRed expression ([12]; Am 0→250 μM, presence or absence of 2AP (0 or 250 μM)): 2.9×10^6 fu/OD620

SMILES: CC(C)S[C@@H]1O[C@H](CO)[C@H](O)[C@H](O)[C@H]1O [IPTG]
- regulation upon addition of IPTG ([7]; sp105): 44 fold
- regulation upon addition of IPTG ([7]; sp120): ~1 fold
- induction factor (control +/−IPTG) [13]: 4
- control +/−IPTG ([9]; riboswitch containing construct, column 2, no riboswitch inducer): 40 fold

SMILES: Nc1ncnc2nc[nH]c12 [adenine]
- response of riboswitch to ligand [14]: neither responds
- affinity ([5]; ITC, M6″ aptamer domain): no affinity
- affinity [15]: no affinity
- response of riboswitch to ligand ([9]; M6″): neither responds

SMILES: Nc1ncnc(=O)[nH]1 [compound 3, azacytosine]
- Kd [15]: 1000 to 1200 nM
- response of riboswitch to ligand [11]: does not respond
